Counter-ions that a name gives are not always drawn.
Columns and labels:
[1] = biological target: purified human Factor XIa (Homo sapiens (Human), UniProt P03951); experiment: biochemical; format: biochemical; details: read-out: Factor XIa Ki
[2] = biological target: purified human plasma kallikrein (Homo sapiens (Human), UniProt P03952); experiment: biochemical; format: biochemical; details: read-out: Plasma Kallikrein Ki
Chain of purified human plasma kallikrein (P03952 whole entry, looked up): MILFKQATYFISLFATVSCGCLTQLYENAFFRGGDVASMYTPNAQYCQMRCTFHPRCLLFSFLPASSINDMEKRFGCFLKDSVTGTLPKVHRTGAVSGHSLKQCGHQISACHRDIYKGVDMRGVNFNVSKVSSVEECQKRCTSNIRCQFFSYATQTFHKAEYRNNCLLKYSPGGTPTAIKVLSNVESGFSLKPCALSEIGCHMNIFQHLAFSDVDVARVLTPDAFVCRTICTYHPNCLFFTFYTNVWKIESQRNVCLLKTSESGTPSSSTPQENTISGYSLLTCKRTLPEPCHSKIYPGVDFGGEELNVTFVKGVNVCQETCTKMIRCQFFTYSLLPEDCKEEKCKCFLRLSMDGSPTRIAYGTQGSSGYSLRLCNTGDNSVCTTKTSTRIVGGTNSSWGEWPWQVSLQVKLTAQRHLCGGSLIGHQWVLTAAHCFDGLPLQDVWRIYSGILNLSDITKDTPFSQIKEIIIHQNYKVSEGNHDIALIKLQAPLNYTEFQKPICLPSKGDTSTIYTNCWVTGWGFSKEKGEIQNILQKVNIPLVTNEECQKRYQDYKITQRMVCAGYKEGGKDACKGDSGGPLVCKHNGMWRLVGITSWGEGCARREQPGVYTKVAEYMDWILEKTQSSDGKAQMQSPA
Chain of purified human plasma kallikrein (P03952 whole entry partner, looked up): as the sequence (P03952 whole entry, looked up) above

Chain of purified human Factor XIa (P03951 whole entry, looked up): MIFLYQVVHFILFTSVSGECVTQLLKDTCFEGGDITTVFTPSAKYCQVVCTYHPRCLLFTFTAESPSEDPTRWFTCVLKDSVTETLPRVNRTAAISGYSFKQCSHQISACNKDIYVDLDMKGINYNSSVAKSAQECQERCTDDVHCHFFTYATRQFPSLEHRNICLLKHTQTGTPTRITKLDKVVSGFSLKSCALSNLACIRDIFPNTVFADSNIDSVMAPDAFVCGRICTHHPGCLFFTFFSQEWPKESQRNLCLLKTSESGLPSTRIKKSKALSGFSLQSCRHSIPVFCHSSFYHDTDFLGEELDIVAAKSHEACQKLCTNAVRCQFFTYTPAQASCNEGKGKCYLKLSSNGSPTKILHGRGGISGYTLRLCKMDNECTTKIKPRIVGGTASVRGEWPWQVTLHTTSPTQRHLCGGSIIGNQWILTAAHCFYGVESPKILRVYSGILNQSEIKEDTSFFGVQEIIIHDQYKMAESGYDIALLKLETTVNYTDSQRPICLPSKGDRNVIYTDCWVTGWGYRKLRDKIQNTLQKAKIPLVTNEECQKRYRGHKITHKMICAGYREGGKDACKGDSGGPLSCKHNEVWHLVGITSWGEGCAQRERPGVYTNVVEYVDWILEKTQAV
Chain of purified human Factor XIa (P03951 whole entry partner, looked up): as the sequence (P03951 whole entry, looked up) above

| Compound | Ki [1] [nM] | Ki [2] [nM] |
| --- | --- | --- |
| C[C@@H]1CCC[C@H](N2CCC(c3c(-c4cn[nH]c4)ccc(Cl)c3F)=CC2=O)c2cc(ccn2)-c2ccccc2NC1=O [Example 55, (10R,14S)-14-{4-[3-Chloro-2-fluoro-6-(1H-pyrazol-4-yl)phenyl]-6-oxo-1,2,3,6-tetrahydropyridin-1-yl}-10-methyl-8,16-diazatricyclo[13.3.1.0^2,7]nonadeca-1(19),2,4,6,15,17-hexaen-9-one, TFA salt] | 2.73 | 19 |
| C[C@@H]1CCC[C@H](N2CCC(c3c(-c4ccncc4)ccc(Cl)c3F)=CC2=O)c2cc(ccn2)-c2ccccc2NC1=O [Example 56, (10R,14S)-14-{4-[3-Chloro-2-fluoro-6-(pyridin-4-yl)phenyl]-6-oxo-1,2,3,6-tetrahydropyridin-1-yl}-10-methyl-8,16-diazatricyclo[13.3.1.0^2,7]nonadeca-1(19),2,4,6,15,17-hexaen-9-one, TFA salt] | 16.5 | 137 |
| C[C@@H]1CCC[C@H](N2CCC(c3c(-c4ccccc4)ccc(Cl)c3F)=CC2=O)c2cc(ccn2)-c2ccccc2NC1=O [Example 57, (10R,14S)-14-[4-(3-Chloro-2-fluoro-6-phenylphenyl)-6-oxo-1,2,3,6-tetrahydropyridin-1-yl]-10-methyl-8,16-diazatricyclo[13.3.1.0^2,7]nonadeca-1(19),2,4,6,15,17-hexaen-9-one, TFA salt] | 35.6 | 351 |
| C[C@@H]1CCC[C@H](N2CCC(c3c(-c4cccnc4)ccc(Cl)c3F)=CC2=O)c2cc(ccn2)-c2ccccc2NC1=O [Example 58, (10R,14S)-14-{4-[3-Chloro-2-fluoro-6-(pyridin-3-yl)phenyl]-6-oxo-1,2,3,6-tetrahydropyridin-1-yl}-10-methyl-8,16-diazatricyclo[13.3.1.0^2,7]nonadeca-1(19),2,4,6,15,17-hexaen-9-one, TFA salt] | 15.1 | 179 |
| Cc1nn(C)cc1-c1ccc(Cl)c(F)c1C1=CC(=O)N([C@H]2CCC[C@@H](C)C(=O)Nc3ccccc3-c3ccnc2c3)CC1 [Example 60, (10R,14S)-14-{4-[3-Chloro-6-(1,3-dimethyl-1H-pyrazol-4-yl)-2-fluorophenyl]-6-oxo-1,2,3,6-tetrahydropyridin-1-yl}-10-methyl-8,16-diazatricyclo[13.3.1.0^2,7]nonadeca-1(19),2,4,6,15,17-hexaen-9-one, TFA salt] | > 409 | 1090 |
| COC(=O)Nc1cc2c(cc1I)-c1ccnc(c1)[C@@H](N1CCC(c3c(F)ccc(Cl)c3F)=CC1=O)CCC[C@@H](C)C(=O)N2 [Example 62, Methyl N-[(10R,14S)-14-[4-(3-chloro-2,6-difluorophenyl)-6-oxo-1,2,3,6-tetrahydropyridin-1-yl]-4-iodo-10-methyl-9-oxo-8,16-diazatricyclo[13.3.1.0^2,7]nonadeca-1(19),2,4,6,15,17-hexaen-5-yl]carbamate, TFA salt] | 196 | 1100 |
| CC(=O)NC(=S)Nc1ccc2c(c1)NC(=O)[C@H](C)CCC[C@H](N1CCC(c3c(F)ccc(Cl)c3F)=CC1=O)c1cc-2ccn1 [Example 63, 3-Acetyl-1-[(10R,14S)-14-[4-(3-chloro-2,6-difluorophenyl)-6-oxo-1,2,3,6-tetrahydropyridin-1-yl]-10-methyl-9-oxo-8,16-diazatricyclo[13.3.1.0^2,7]nonadeca-1(19),2,4,6,15,17-hexaen-5-yl]thiourea] | 7.86 | 48 |
| COC(=O)Nc1ccc2c(c1)NC(=O)[C@H](C)CCC[C@H](N1CCC(c3c(F)ccc(Cl)c3F)=C(C)C1=O)c1cc-2ccn1 [Example 64, Methyl N-[(10R,14S)-14-[4-(3-chloro-2,6-difluorophenyl)-5-methyl-6-oxo-1,2,3,6-tetrahydropyridin-1-yl]-10-methyl-9-oxo-8,16-diazatricyclo[13.3.1.0^2,7]nonadeca-1(19),2,4,6,15,17-hexaen-5-yl]carbamate, TFA salt] | 16.6 | 171 |
| C[C@@H]1CCC[C@H](n2ccc(-c3cccc(Cl)c3F)cc2=O)c2cc(ccn2)-c2ccccc2NC1=O [Example 65, (10R,14S)-14-[4-(3-Chloro-2-fluorophenyl)-2-oxo-1,2-dihydropyridin-1-yl]-10-methyl-8,16-diazatricyclo[13.3.1.0^2,7]nonadeca-1(19),2,4,6,15,17-hexaen-9-one, TFA salt] | 47.6 | 53 |
| C[C@@H]1CCC[C@H](N2CCC(c3c(N)ccc(Cl)c3F)=CC2=O)c2cc(ccn2)-c2ccccc2NC1=O [Example 66, (10R,14S)-14-[4-(6-Amino-3-chloro-2-fluorophenyl)-6-oxo-1,2,3,6-tetrahydropyridin-1-yl]-10-methyl-8,16-diazatricyclo[13.3.1.0^2,7]nonadeca-1(19),2,4,6,15,17-hexaen-9-one, TFA salt] | 66.6 | 45 |
| C[C@@H]1CCC[C@H](N2CCC(c3c(F)ccc(Cl)c3F)=CC2=O)c2cc(ccn2)-c2ccc(Br)cc2NC1=O [Example 69, (10R,14S)-5-Bromo-14-[4-(3-chloro-2,6-difluorophenyl)-6-oxo-1,2,3,6-tetrahydropyridin-1-yl]-10-methyl-8,16-diazatricyclo[13.3.1.0^2,7]nonadeca-1(19),2,4,6,15,17-hexaen-9-one, TFA salt] | 79.2 | 338 |
| C[C@@H]1CCC[C@H](N2CCC(c3c(F)ccc(Cl)c3F)=CC2=O)c2cc(cc[n+]2[O-])-c2ccc(N)cc2NC1=O [Example 70, (10R,14S)-5-Amino-14-[4-(3-chloro-2,6-difluorophenyl)-6-oxo-1,2,3,6-tetrahydropyridin-1-yl]-10-methyl-9-oxo-8,16-diazatricyclo[13.3.1.0^2,7]nonadeca-1(19),2,4,6,15,17-hexaen-16-ium-16-olate, TFA salt] | 8.02 | 18 |
| C[C@@H]1CCC[C@H](N2CCC(c3cc(Cl)ccc3-n3cncn3)=CC2=O)c2cc(ccn2)-c2ccccc2NC1=O [Example 71, (10R,14S)-14-{4-[5-Chloro-2-(1H-1,2,4-triazol-1-yl)phenyl]-6-oxo-1,2,3,6-tetrahydropyridin-1-yl}-10-methyl-8,16-diazatricyclo[13.3.1.0^2,7]nonadeca-1(19),2(7),3,5,15,17-hexaen-9-one, TFA salt] | 1.68 | 60 |
| COC(=O)Nc1ccc2c(c1)NC(=O)[C@H](C)CCC[C@H](N1CC(C)C(c3c(F)ccc(Cl)c3F)=CC1=O)c1cc-2ccn1 (stereo partly drawn) [Example 73, Methyl N-[(10R,14S)-14-[4-(3-chloro-2,6-difluorophenyl)-3-methyl-6-oxo-1,2,3,6-tetrahydropyridin-1-yl]-10-methyl-9-oxo-8,16-diazatricyclo[13.3.1.0^2,7]nonadeca-1(19),2(7),3,5,15,17-hexaen-5-yl]carbamate, TFA salt] | 0.88 | 6 |
| Cc1ncn(-c2ccc(Cl)cc2C2=CC(=O)N([C@H]3CCC[C@@H](C)C(=O)Nc4ccccc4-c4ccnc3c4)CC2)n1 [Example 74, (10R,14S)-14-{4-[5-Chloro-2-(3-methyl-1H-1,2,4-triazol-1-yl)phenyl]-6-oxo-1,2,3,6-tetrahydropyridin-1-yl}-10-methyl-8,16-diazatricyclo[13.3.1.0^2,7]nonadeca-1(19),2(7),3,5,15,17-hexaen-9-one, TFA salt] | 40.1 | 238 |
| COC(=O)Nc1ccc2c(c1)NC(=O)[C@H](C)CCC[C@H](n1ncc(-c3c(Br)ccc(Cl)c3F)cc1=O)c1cc-2ccn1 [Example 78, Methyl N-[(10R,14S)-14-[4-(6-bromo-3-chloro-2-fluorophenyl)-6-oxo-1,6-dihydropyridazin-1-yl]-10-methyl-9-oxo-8,16-diazatricyclo[13.3.1.0^2,7]nonadeca-1(19),2(7),3,5,15,17-hexaen-5-yl]carbamate, TFA salt] | 0.98 | 5 |
| COC(=O)Nc1ccc2c(c1)NC(=O)[C@H](C)CCC[C@H](n1ncc(-c3c(C#N)ccc(Cl)c3F)cc1=O)c1cc-2ccn1 [Example 79, Methyl N-[(10R,14S)-14-[4-(3-chloro-6-cyano-2-fluorophenyl)-6-oxo-1,6-dihydropyridazin-1-yl]-10-methyl-9-oxo-8,16-diazatricyclo[13.3.1.0^2,7]nonadeca-1(19),2(7),3,5,15,17-hexaen-5-yl]carbamate, TFA salt] | 0.55 | 3 |
| C[C@@H]1CCC[C@H](N2CCC(c3c(F)ccc(Cl)c3F)=CC2=O)c2cc(ccn2)-c2c(F)cccc2NC1=O [Example 80, (10R,14S)-14-[4-(3-Chloro-2,6-difluorophenyl)-6-oxo-1,2,3,6-tetrahydropyridin-1-yl]-3-fluoro-10-methyl-8,16-diazatricyclo[13.3.1.0^2,7]nonadeca-1(19),2(7),3,5,15,17-hexaen-9-one, TFA salt] | 13.6 | 38 |
| C[C@@H]1CCC[C@H](N2CCC(c3c(F)ccc(Cl)c3F)=CC2=O)c2cc(ccn2)-c2cc3ccc(=O)[nH]c3cc2NC1=O [Example 81, (14R,18S)-18-[4-(3-Chloro-2,6-difluorophenyl)-6-oxo-1,2,3,6-tetrahydropyridin-1-yl]-14-methyl-8,12,20-triazatetracyclo[17.3.1.0^2,11.0^4,9]tricosa-1(23),2,4(9),5,10,19,21-heptaene-7,13-dione, TFA salt] | 0.31 | 1 |
| Cc1[nH]c2cc3c(cc2c1C(=O)O)-c1ccnc(c1)[C@@H](N1CCC(c2c(F)ccc(Cl)c2F)=CC1=O)CCC[C@@H](C)C(=O)N3 [Example 83, (13R,17S)-17-[4-(3-Chloro-2,6-difluorophenyl)-6-oxo-1,2,3,6-tetrahydropyridin-1-yl]-6,13-dimethyl-12-oxo-7,11,19-triazatetracyclo[16.3.1.0^2,10.0^4,8]docosa-1(22),2,4(8),5,9,18,20-heptaene-5-carboxylic acid, TFA salt] | 0.06 | 7 |
| C[C@@H]1CCC[C@H](N2CCC(c3c(F)ccc(Cl)c3F)=CC2=O)c2cc(ccn2)-c2cc3c(cc2NC1=O)NC(=O)C3 [Example 84, (13R,17S)-17-[4-(3-Chloro-2,6-difluorophenyl)-6-oxo-1,2,3,6-tetrahydropyridin-1-yl]-13-methyl-7,11,19-triazatetracyclo[16.3.1.0^2,10.0^4,8]docosa-1(22),2,4(8),9,18,20-hexaene-6,12-dione, TFA salt] | 2.68 | 16 |

Source: patent US9409908B2 (priority 2012, dated 2016)
